Reference: patent US20130331415A1, “COMPOSITIONS COMPRISING WNT INHIBITORS FOR TREATING CANCER” (priority 2010, published 2013)

Tests used:
[1] = test system: OPM-2 myeloma cells; test: Cell viability by DiOC6 staining, flow cytometry: OPM-2; type: cell-based, human; conditions: for viability of OPM-2 cells, single drug or combination: three days, EA or CIC 30 μM, thalidomide 40 μM, lenalidomide 12 μM
Procedure: (§1) The lymphoma cell lines LAM-53, SU-DHL-4, Daudi and Raji, as well as the myeloma cell lines OPM-2, RPMI-8226 and U-266 (all obtained from DSMZ, Collection of Microorganisms and Cell Culture, Braunschweig, Germany) were cultured in RPMI-1640 Medium consisting of 10% heat-inactivated fetal calf serum (FCS, Invitrogen, Karlsruhe, Germany), 2.5% 1 M HEPES, and 1× penicillin/streptomycin (all from PAA Laboratories GmbH, Cölbe, Germany). Cells were cultured at a density of 3.3×10^5 cells ml^−1 andincubated at 37° C. with 5% CO2 and 95% humidity.
(§2) After addition of 5 μl PI-solution (100 μg/ml) the cells were analyzed by FACS.
(§3) Experiments were performed as reported recently.

[2] = test system: RPMI 8226 myeloma cells; test: Cell viability by DiOC6 staining, flow cytometry: RPMI 8226; type: cell-based, human; conditions: three days; EA or CIC 30 μM; thalidomide 20 μM; lenalidomide 80 μM
Procedure: as §1, §2, §3

[3] = test system: PBMC; test: Cell viability by DiOC6 staining, flow cytometry: PBMC of healthy individuals; type: cell-based, human
Procedure: as §2
PBMCs were isolated from blood of healthy donors by Ficoll-Hypaque density gradient centrifugation. Blood from buffy coats was mixed 1:2 with PBS/1% BSA (both PAA, Cölbe, Germany) and used for a ficoll gradient (LymphoPrep, PAA, Cölbe, Germany). After the centrifugation at 800 g for 30 minutes, the leukocyte layer was removed and transferred to new tubes.
as §3

[4] = test system: PBL; test: Cell viability by DiOC6 staining, flow cytometry: PBL of healthy individuals; type: cell-based, human
Procedure: as §2, §3

[5] = test system: lymphoma cell lines (OCI-Ly8 LAM53, SU-DHL-4 and Raji); test: Viability of lymphoma cell lines in vitro; type: cell-based, human
Procedure: as §2, §3

[6] = test system: U266 myeloma cells; test: Cell viability by DiOC6 staining, flow cytometry: U266; type: cell-based, human; conditions: three days; EA or CIC 30 μM; thalidomide 160 μM
Procedure: as §1, §2, §3

[7] = test system: primary myeloma cells; test: Viability of primary myeloma cells from bone marrow of patients; type: cell-based, human; conditions: three days; preliminary data
Procedure: Bone marrow samples from patients with myeloma were taken after informed consent, single cell suspensions generated and cells ficolled. Cells were incubated with or without EA for three days and measured for viability.
Results represent data from two separate experiments. Data are shown as mean.
Bone marrow samples from patients with myeloma were taken after informed consent, single cell suspensions generated and cells ficolled. Cells were incubated with or without CIC for three days and measured for viability.
Bone marrow samples from patients with myeloma were taken after informed consent, single cell suspensions generated and cells ficolled. Cells were incubated with or without GF for three days and measured for viability.

[8] = test system: MPC11 myeloma cells; type: in vivo; conditions: for animals in which solid tumor nodules formed: gavage 450 μg per animal daily; for overall survival compared to control group: oral 450 μg/day, 750 μg lenalidomide/day in combination
Procedure: Mice were treated orally with 450 μg/day EA and 750 μg lenalidomide/day, respectively. Overall survival and tumor growth were measured. Tumor volume was calculated as follows: volume=length×width^2×0.52.
Mice were treated orally with 450 μg/day CIC and 750 μg lenalidomide/day, respectively. Overall survival and tumor growth were measured. Tumor volume was calculated as follows: volume=length×width^2×0.52.
Mice were treated orally with 450 μg/day PO. Overall survival and tumor growth were measured. Tumor volume was calculated as follows: volume=length×width^2×0.52.

[9] = test system: Wnt/beta catenin signaling; conditions: 960 compounds screened; cited from earlier work
[10] = test system: primary CLL cells; conditions: cited from earlier work
[11] = cited from earlier work
[12] = test system: Raji lymphoma cells; test: Cell viability by DiOC6 staining, flow cytometry: Raji; type: cell-based, human; conditions: for viability of Raji cells, single drug or combination: EA or CIC 30 μM, data not shown
Procedure: as §1, §2, §3

[13] = test system: OCI-Ly8 LAM53 lymphoma cells; test: Cell viability by DiOC6 staining, flow cytometry: OCI-Ly8 LAM53; type: cell-based; conditions: Homo sapiens, EA 30 μM, after 72 h, read-out: relative viability, LAM-53
Procedure: as §1, §2, §3

[14] = test system: SU-DHL-4 lymphoma cells; test: Cell viability by DiOC6 staining, flow cytometry: SU-DHL-4; type: cell-based; conditions: Homo sapiens, EA 30 μM, after 72 h, read-out: relative viability, SU-DHL-4
Procedure: as §1, §2, §3

[15] = test system: Daudi lymphoma cells; test: Cell viability by DiOC6 staining, flow cytometry: Daudi; type: cell-based, human; conditions: EA or CIC 30 μM; data not shown
Procedure: as §1, §2
as §1, with “and incubated” for “andincubated”
as §3

[16] = test system: myeloma cells (OPM-2, U266 and RPMI 8226); test: Viability of myeloma cell lines, mean IC50 over OPM-2, U266 and RPMI 8226; type: cell-based, human
Procedure: A mean IC50 value in myeloma cells was determined using the mean of the IC50 results determined in OPM-2, U266 and RPMI 8226 cells.

Compound: Nc1cccc2c1CN(C1CCC(=O)NC1=O)C2=O (racemic) [lenalidomide, (RS)-3-(4-amino-1-oxo-3H-isoindol-2-yl)piperidine-2,6-dione]
- viability of OPM-2 cells, single drug or combination [1]: significant decrease in viability
- viability of RPMI-8226 cells, single drug or combination [2]: significant decrease in viability
- effect on normal PBMC [3]: marginal
- effect on normal PBL [4]: marginal
- viability of lymphoma cell lines in vitro [5]: no effect

Compound: O=C1CCC(N2C(=O)c3ccccc3C2=O)C(=O)N1 (racemic) [thalidomide, (RS)-2-(2,6-dioxopiperidin-3-yl)-1H-isoindole-1,3(2H)-dione]
- viability of OPM-2 cells, single drug or combination [1]: significant decrease in viability
- viability of U-266 cells, single drug or combination [6]: significant decrease in viability
- viability of RPMI-8226 cells, single drug or combination [2]: significant decrease in viability
- effect on normal PBMC [3]: no effect
- effect on normal PBL [4]: no effect
- viability of lymphoma cell lines in vitro [5]: no effect

Compound: Cc1cc(C2CCCCC2)n(O)c(=O)c1 [CIC, ciclopirox olamine]
- effect on normal PBMC [3]: marginal
- effect on normal PBL [4]: marginal
- viability of lymphoma cell lines in vitro [5]: significantly (p<0.05) decreased the viability
- growth of primary myeloma cells from bone marrow of patients [7]: inhibits the growth
- tumor growth compared to control mice ([8]; oral 450 μg/day CIC, 750 μg lenalidomide/day): significantly reduced
- result of TOPflash reporter screen [9]: Wnt/beta catenin inhibitors
- cell death in primary CLL cells [10]: selectively induced cell death

Compound: Cc1cc(C2CCCCC2)n(O)c(=O)c1 [Ciclopirox, 6-cyclohexyl-1-hydroxy-4-methyl-1,2-dihydropyridin-2-one]
- solubility in methanol [11]: soluble

Compound: C=C(CC)C(=O)c1ccc(OCC(=O)O)c(Cl)c1Cl [EA, 2-[2,3-dichloro-4-(2-methylidenebutanoyl)phenoxy]acetic acid]
- viability at 30 µM ([12]; Homo sapiens, Raji, EA 30 μM, after 72 h, read-out: relative viability, Raji): 78.9%
- viability at 30 µM [13]: 91%
- viability at 30 µM [14]: 97.6%
- viability of lymphoma cell lines in vitro [5]: significantly (p<0.05) decreased the viability
- growth of primary myeloma cells from bone marrow of patients [7]: inhibits the growth
- tumor growth compared to mice treated with lenalidomide alone ([8]; oral 450 μg/day EA, 750 μg lenalidomide/day, p<0.001): significantly reduced
- result of TOPflash reporter screen [9]: Wnt/beta catenin inhibitors
- cell death in primary CLL cells [10]: selectively induced cell death
- solubility in water [11]: slightly solube
- solubility in most organic solvents ([11]; e.g. alcohols, chloroform, and benzene): soluble

Compound: CC(C)C[C@H](NC(=O)[C@H](Cc1ccccc1)NC(=O)c1cnccn1)B(O)O [bortezomib]
- viability of OPM-2 cells, single drug or combination [1]: significant decrease in viability

Compound: COc1cccc2c1C(=O)c1c(O)c3c(c(O)c1C2=O)C[C@@](O)(C(=O)CO)C[C@@H]3O[C@H]1C[C@H](N)[C@H](O)[C@H](C)O1 [doxorubicin]
- viability of Raji cells, single drug or combination [12]: significant decrease in viability
- viability of Daudi cells, single drug or combination [15]: significant decrease in viability

Compound: COC1=CC(=O)C[C@@H](C)[C@]12Oc1c(Cl)c(OC)cc(OC)c1C2=O [griseofulvin, (2S,6′R)-7-chloro-2′,4,6-trimethoxy-6′-methyl-3H,4′H-spiro[1-benzofuran-2,1′-cyclohex[2]ene]-3,4′-dione]
- viability of myeloma cell lines in vitro [16]: significantly decreased the viability
- viability of lymphoma cell lines in vitro [5]: significantly (p<0.05) decreased the viability
- growth of primary myeloma cells from bone marrow of patients [7]: inhibits the growth
- animals in which solid tumor nodules formed [8]: 5 of 6
- overall survival compared to control group [8]: significantly (p<0.05) longer

Compound: Cc1cc(CC(C)CC(C)(C)C)n(O)c(=O)c1 (stereo not shown) [piroctone olamine]
- mode of cytotoxic activity ([1]; 0.1 uM, three days (FIG. 12)): induction of apoptosis
- effect on normal PBL [4]: marginal
- viability of myeloma cell lines in vitro [16]: significantly decreased the viability
- viability of lymphoma cell lines in vitro [5]: significantly (p<0.05) decreased the viability
- growth of primary myeloma cells from bone marrow of patients [7]: inhibits the growth
- animals in which solid tumor nodules formed [8]: 5 of 6
- overall survival compared to control group [8]: significantly (p<0.05) longer

Compound: rituximab
- viability of Raji cells, single drug or combination [12]: significantly decreased
- viability of Daudi cells, single drug or combination [15]: significantly decreased
